Assay: Waters ACQUITY UPLC BEH C18, 100 × 2.1 mm, 1.7 µm, 40 °C, 0.3 to 0.4 mL/min, estimated dead time 0.63 min; A: water + 0.1% formic acid; B: methanol + 0.1% formic acid; gradient (min/%B) 0/0.5 0.1/0.5 10/80 10.1/99.5 12/99.5
Conditions: stereoisomer not certain

| Structure (SMILES) | LC retention time [min] |
| --- | --- |
| CC(CCC1(O)OC2CC3C4CCC5(O)CC(OC6OC(CO)C(O)C(O)C6O)C(O)CC5(C)C4CCC3(C)C2C1C)COC1OC(CO)C(O)C(O)C1O (centres undefined) | 4.69 |
| O=c1cc2oc(-c3ccc(O)cc3)ccc-2c(O)c1 | 3.87 |
| CCC1=CC2CN3CCc4c([nH]c5ccccc45)C(C(=O)OC)(C2)C13 (centres undefined) | 5.04 |
| O=C1CC(c2ccc(O)cc2)Oc2cc(O)ccc21 (centres undefined) | 5.3 |
| CC1OC(OC2C(OC3C(OC4CCC5(C)C(CCC6(C)C5CC=C5C7CC(C)(C)CC(=O)C7(C)CCC56C)C4(C)CO)OC(C(=O)O)C(O)C3O)OC(CO)C(O)C2O)C(O)C(O)C1O (centres undefined) | 7.62 |
| CC1OC(Oc2cc(O)c3c(=O)c(OC4OC(COC5OC(CO)C(O)C(O)C5O)C(O)C(O)C4O)c(-c4ccc(O)cc4)oc3c2)C(O)C(O)C1O (centres undefined) | 3.62 |
| COC(=O)C1=COC(C)C2CN3CCc4c([nH]c5ccccc45)C3CC12 (centres undefined) | 4.87 |
| O=c1ccc2cc(OC3OC(CO)C(O)C(O)C3O)c(O)cc2o1 (centres undefined) | 2.87 |
| COc1ccc2c3c([nH]c2c1)C1CC2C(CC(O)C(OC)C2C(=O)O)CN1CC3 (centres undefined) | 3.89 |
| Nc1[nH]c(=O)[nH]c(=O)c1OC1OC(CO)C(O)C(O)C1OC1OC(CO)C(O)C1O (centres undefined) | 2.16 |
| C=CC1C(OC2OC(CO)C(O)C(O)C2O)OC=C(C(=O)O)C1Cc1nccc2c1[nH]c1ccccc12 (centres undefined) | 3.72 |
| CC1(C)CC2C3=CCC4C5(C)CCC(OC6OC(C(=O)O)C(O)C(O)C6OC6OC(CO)C(O)C(O)C6OC6OC(CO)C(O)C(O)C6O)C(C)(CO)C5CCC4(C)C3(C)CCC2(C)CC1OC1OCC(O)C(O)C1O (centres undefined) | 5.5 |
| CS(=O)CCCCCCCC#N (centres undefined) | 4.16 |
| COc1cc2c(c(OC)c1OC)-c1ccc(OC)c(=O)cc1C(N(C)Cc1ccccc1O)CC2 (centres undefined) | 5.03 |
| COc1cccc(C=CC(=O)O)c1 | 6.03 |
| COc1cc(C=CC(=O)O)cc(OC)c1O | 4.21 |
| COc1ccc(CC2c3cc(OC)c(OC)cc3CCN2C)cc1OC (centres undefined) | 4.26 |
| O=C([O-])CC(=O)OCC1OC(OC2Cc3c(O)cc(O)cc3[O+]=C2c2ccc(O)cc2)C(O)C(O)C1O (centres undefined) | 4.88 |
| O=C(C=Cc1ccc(O)c(O)c1)OC1CC(O)(C(=O)O)CC(OC(=O)C=Cc2ccc(O)c(O)c2)C1O (centres undefined) | 4.6 |
| CCC1CN2CCC3(C(=O)Nc4ccccc43)C2CC1C(=COC)C(=O)OC (centres undefined) | 4.9 |
| COc1cc(C=CC(=O)OC(CC(=O)O)C(=O)O)cc(OC)c1O (centres undefined) | 4.23 |
| COc1ccc(C2CC(=O)c3c(O)cc(OC4OC(COC5OC(C)C(O)C(O)C5O)C(O)C(O)C4O)cc3O2)cc1 (centres undefined) | 5.33 |
| COc1ccc2c(c1)OC(OC1OC(CO)C(O)C(O)C1O)C(=O)N2O (centres undefined) | 3.5 |
| CCCCC(=O)OC1C(CO)OC(OC2(CO)OC(CO)C(OC(C)=O)C2O)C(OC(=O)CCC)C1OC(=O)CCCC (centres undefined) | 8.04 |
| O=c1[nH]c(=O)c2[nH]cnc2[nH]1 | 1.75 |
| CC(C)=CCCC(C)(OC1OC(COC2OCC(O)C(O)C2O)C(O)C(O)C1O)C1CCC2(C)C1C(O)CC1C3(C)CCC(OC4OC(CO)C(O)C(O)C4OC4OC(CO)C(O)C(O)C4O)C(C)(C)C3CCC12C (centres undefined) | 6.14 |
| CCCCCCCCC1OC1CCCCCCCC(=O)O (centres undefined) | 10.3 |

| Structure (SMILES) | LC retention time [min] |
| --- | --- |
| CC(C)CC(NC(=O)CCC(N)C(=O)O)C(=O)O (centres undefined) | 2.54 |
| CC1(C(=O)O)CCC2(C)CCC3(C)C(=CC(=O)C4C5(C)CCC(OC6OC(C(=O)O)C(O)C(O)C6OC6OC(C(=O)O)C(O)C(O)C6O)C(C)(CO)C5CCC43C)C2C1 (centres undefined) | 6.36 |
| CN1C2CCC1CC(OC(=O)C(CO)c1ccccc1)C2 (centres undefined) | 3.59 |
| CC(CCC1(O)OC2CC3C4CC=C5CC(O)CC(OC6OC(CO)C(O)C(O)C6O)C5(C)C4CCC3(C)C2C1C)COC1OC(CO)C(O)C(O)C1OC1OC(C)C(O)C(O)C1O (centres undefined) | 4.34 |
| CC(C)=CCc1cc(-c2coc3cc(O)c(CC=C(C)C)c(O)c3c2=O)cc(O)c1O | 8.06 |
| O=C(O)CC(=O)OCC1OC(Oc2cc(O)c3c(=O)cc(-c4ccc(O)cc4)oc3c2)C(O)C(O)C1O (centres undefined) | 5.16 |
| C=CC1C(OC2OC(CO)C(O)C(O)C2O)OC=C(C(=O)O)C1CC1NCCc2c1[nH]c1ccccc21 (centres undefined) | 3.94 |
| O=C(C=Cc1ccc(O)cc1)NCCCCN(CCCNC(=O)C=Cc1ccc(O)cc1)C(=O)C=Cc1ccc(O)cc1 | 5.62 |
| O=c1c(OC2OCC(O)C(O)C2O)c(-c2ccc(O)c(O)c2)oc2cc(O)cc(O)c12 (centres undefined) | 4.17 |
| CC(C)=CCc1c(O)ccc2c1OC(c1ccc(O)cc1)CC2=O (centres undefined) | 8.93 |
| CC(C)=CCc1c(O)ccc2c1OCC(c1ccc(O)cc1O)C2=O (centres undefined) | 7.51 |
| CC1(C)CC(=O)C2(C)CCC3(C)C(=CCC4C5(C)CCC(OC6OC(C(=O)O)C(O)C(O)C6OC6OC(CO)C(O)C(O)C6OC6OC(CO)C(O)C(O)C6O)C(C)(CO)C5CCC43C)C2C1 (centres undefined) | 7.49 |
| O=c1c(O)c(-c2ccc(OC3OC(CO)C(O)C(O)C3O)c(O)c2)oc2cc(O)cc(O)c12 (centres undefined) | 4.51 |
| CC1OC(OC2C(c3c(O)cc(O)c4c(=O)cc(-c5ccc(O)cc5)oc34)OC(CO)C(O)C2O)C(O)C(O)C1O (centres undefined) | 4.61 |
| COc1cc(C=CC(=O)N2CCC=CC2=O)cc(OC)c1OC | 6.83 |
| CC1CCC2(OC1O)OC1CC3C4CC=C5CC(OC6OC(CO)C(OC7OC(C)C(O)C(O)C7O)C(O)C6OC6OC(C)C(O)C(O)C6O)CCC5(C)C4CC(O)C3(C)C1C2C (centres undefined) | 5.61 |
| C=CC1C(OC2OC(CO)C(O)C(O)C2O)OC=C2C(=O)N3CCc4c([nH]c5ccccc45)C3CC21 (centres undefined) | 5.56 |
| CCC(C)C(=O)OC1C(O)C2C(CN3CC(C)CCC3C2(C)O)C2CC34OC5(O)C(OC(=O)C(C)(O)C(C)OC(C)=O)CCC3(C)C5CC(O)C4C21O (centres undefined) | 5.04 |
| COc1cc(-c2oc3cc(O)cc(O)c3c(=O)c2OC2OC(COC3OC(C)C(O)C(O)C3O)C(O)C(O)C2O)ccc1O (centres undefined) | 4.17 |
| O=C(O)C(Cc1ccccc1)NC(=O)C1CCCN1 (centres undefined) | 2.99 |
| C=C1CC23CC4C5C6(C)CC(O)CC57C(C2C(O)C1C(O)C37)N4C6 (centres undefined) | 3.07 |
| CS(=O)CCCCCCCN (centres undefined) | 2.08 |
| O=c1c(OC2OC(COC3OCC(O)C(O)C3O)C(O)C(O)C2O)c(-c2ccc(O)c(O)c2)oc2cc(O)cc(O)c12 (centres undefined) | 3.7 |
| COc1ccc(-c2coc3cc(O)cc(O)c3c2=O)cc1 | 7.63 |
| CSCC(NC(=O)CCC(N)C(=O)O)C(=O)O (centres undefined) | 2.02 |
| COc1ccc(-c2coc3cc(OC4OC(COC(=O)CC(=O)O)C(O)C(O)C4O)c(OC)cc3c2=O)cc1 (centres undefined) | 5.38 |
| CCCCCC=CCC(O)C(O)CCCCCCCC(=O)O (centres undefined) | 8.54 |

| Structure (SMILES) | LC retention time [min] |
| --- | --- |
| O=C(O)CC(=O)OCC1OC(Oc2c(-c3cc(O)c(O)cc3O)oc3cc(O)cc(O)c3c2=O)C(O)C(O)C1O (centres undefined) | 3.88 |
| CC(CCC1(O)OC2CC3C4CCC5CC(OC6OC(CO)C(O)C(O)C6OC6OC(CO)C(O)C(O)C6O)C(O)CC5(C)C4CCC3(C)C2C1C)COC1OC(CO)C(O)C(O)C1O (centres undefined) | 4.64 |
| CCOC1OC(=O)c2cc3ccc4c(c3c(-c3ccc5c(c3)OCO5)c21)OCO4 (centres undefined) | 8.82 |
| NC(CCC(=O)NC(Cc1ccccc1)C(=O)O)C(=O)O (centres undefined) | 3.04 |
| CC(C)=CCc1cc(C=CC(=O)c2ccc(O)cc2O)ccc1O | 8.61 |
| C=CC1C(OC2OC(CO)C(O)C(O)C2O)OC=C(C(=O)OC)C1CC1NC(C(=O)O)Cc2c1[nH]c1ccccc21 (centres undefined) | 4.13 |
| NC(CCC(=O)NCC(=O)O)C(=O)O (centres undefined) | 1.67 |
| O=C1CCC(C(=O)O)N1 (centres undefined) | 1.73 |
| COc1ccc(CCNC(=O)C=Cc2ccc(O)c(OC)c2)cc1O | 5.29 |
| O=C1CCCC2C3CCCN4CCCC(CN12)C34 (centres undefined) | 2.26 |
| CC(C)=CCCC(C)(OC1OC(CO)C(O)C(O)C1O)C1CCC2(C)C1C(O)CC1C3(C)CCC(O)C(C)(C)C3C(O)CC12C (centres undefined) | 6.59 |
| CCC12CCCN3CCc4c(n(c5ccccc45)C(=O)C1)C32 (centres undefined) | 4.65 |
| O=C(CCc1ccccc1)c1c(O)cc(O)cc1OC1OC(CO)C(O)C(O)C1O (centres undefined) | 4.85 |
| C=C(CCC=C(C)C)C1CCC2(C)C1C(O)CC1C3(C)CCC(O)C(C)(C)C3C(OC3OC(CO)C(O)C(O)C3OC3OC(C)C(O)C(O)C3O)CC12C (centres undefined) | 7.57 |
| CCC1CN2CCc3cc(OC)c(OC)cc3C2CC1CC1NCCc2cc(O)c(OC)cc21 (centres undefined) | 2.98 |
| C=CC1C(OC2OC(CO)C(O)C(O)C2O)OC=C2C(=O)N3Cc4cc5ccccc5nc4C3CC21 (centres undefined) | 5.27 |
| CCN1CC2(COC)C(OC(C)=O)CC(OC)C34C5CC6(O)C(OC)C(O)C(OC(C)=O)(C5C6OC(=O)c5ccccc5)C(C(OC)C23)C14 (centres undefined) | 6.17 |
| COC(=O)C1CC23CCCN4CCC5(c6ccccc6NC15C2C)C43 (centres undefined) | 4.24 |
| OCC1OC(Oc2cc(O)cc(C=Cc3ccc(O)cc3)c2)C(O)C(O)C1O (centres undefined) | 4.05 |
| COc1cc(CC(COC2OC(CO)C(O)C(O)C2O)C(COC2OC(CO)C(O)C(O)C2O)Cc2ccc(O)c(OC)c2)ccc1O (centres undefined) | 3.67 |
| O=C(O)C1Cc2c([nH]c3ccccc23)CN1 (centres undefined) | 3.35 |
| COc1cc(-c2cc(=O)c3c(O)cc(OC4OC(C(=O)O)C(O)C(O)C4OC4OC(C(=O)O)C(O)C(O)C4O)cc3o2)cc(OC)c1O (centres undefined) | 3.96 |
| OC1CCN2Cc3ccccc3N=C12 (centres undefined) | 2.55 |
| COc1cc(-c2[o+]c3cc(O)cc(O)c3cc2OC2OC(CO)C(O)C(O)C2O)ccc1O (centres undefined) | 3.15 |
| COc1cc2ccc(=O)oc2cc1OC1OC(CO)C(O)C(O)C1O (centres undefined) | 3.11 |
